Where two headings read alike, the source gives them in different places.
Legend:
[1] = parameters: method as in PMID 28303528; settings: humans, cited from earlier work
[2] = beagle dogs; ref data not published; cited from earlier work
[3] = Sprague–Dawley rats; ref data not published; cited from earlier work
[4] = cited from earlier work
clinical = settings: plasma
Procedure: Signed and dated written informed consent was obtained from each patient before participation in the study and before the performance of any procedures. After informed consent was obtained, eligible participants were given the choice to be admitted to the clinical research unit on day − 1 or on day 1. A summary of the study design can be found in Fig. 1. […] Subjects continued fasting until 2 h after the start of the IV infusion, at which time a non-standardised light meal was served. The radiolabelled dose contained approximately 100 nCi (3.7 kBq) radioactivity and was administered into one arm of the subject; the contralateral arm was used for pharmacokinetic sampling and clinical laboratory blood draws. The syringe for IV drug administration was connected to a Perfusor Space Infusion Pump (B. Braun), which was set to administer 7 mL in 15 min. Blood samples were taken pre-dose and at 1, 1.5, 2 (just before start of IV infusion), 2.125 (halfway through the IV infusion), 2.25 (just before end of infusion), 2.33, 2.66, 3, 4, 6, and 12 h. Sampling was done on each morning of days 2, 3, 4, 5, 7, 9, 11, 13, 15, and 22. Plasma was divided in two sets: one set was sent to Xceleron Inc. (Germantown, MD, USA) for the determination of plasma concentrations of the ^14C-microtracer by AMS, and the other set was stored at the Antoni van Leeuwenhoek Hospital until it received pharmacokinetic analysis at the Good Laboratory Practice–licensed laboratory of the pharmacy. Plasma was separated from blood by centrifugation (3,000 rpm, 15 min, 4 °C) and was stored frozen at ≤ − 70 °C in polypropylene tubes before and after analysis. […] Vital signs assessments, haematology assessment, and blood chemistry assessments were done frequently to make sure that the patients were still in sufficient condition to remain on treatment. […] The study was approved by the local independent ethics committee and was conducted in accordance with local regulations, the Declaration of Helsinki, and International Conference on Harmonisation Good Clinical Practice Guidelines.
In brief, separation was carried out using an HPLC Acquity I Class pump (Waters, Milford, MA, USA) supplied with a SunFire C18 column (50 mm × 2.1 mm, 5 µm, Waters). Gradient elution was applied using 20 mM ammonium acetate in water (mobile phase A) and 0.1% formic acid in acetonitrile-methanol (50:50, v/v; mobile phase B). Each batch of experimental samples was run against freshly prepared calibration standards. Replicate quality control samples at three concentrations were stored and analysed alongside study samples. The analytical range was from 1 to 500 ng/mL.
Total ^14C-radioactivity concentrations in plasma samples were determined using AMS. Plasma samples were directly aliquoted into tubes containing copper oxide powder (CuO). The samples were graphitised and analysed by a Single Stage Accelerator Mass Spectrometer (SSAMS) 250 kV system (National Electrostatics Corp., Middleton, WI, USA). […] Samples were analysed by an Agilent 1200 HPLC system (Agilent Technologies, Palo Alto, CA, USA) equipped with a wavelength UV detector set to 254 nm. Separation was achieved using a Phenomenex Kinetex 2.6 µ biphenyl column (100 Å, 100 × 3.0 mm). Mobile phase A and B consisted of 20 mM ammonium acetate in water and 0.1% formic acid in acetonitrile–methanol (50:50, v/v), respectively. Column oven temperature was set at 40 °C, and run-time was 18 min. […] The fractions were graphitised and analysed by SSAMS. Each batch of experimental samples was run against freshly prepared calibration standards at seven concentrations in duplicates. Replicate quality control samples at three concentrations were stored and also analysed alongside study samples. Finally, F po was calculated as the ratio of the dose-normalised AUC of the oral dose to the IV dose.

bioavailability (clinical; human, oral, 300 mg) | AUC(0-inf) (clinical; human, po, 300 mg) | AUC(0-t) (clinical; human, po, 300 mg) | Cmax (clinical; human, po, 300 mg) | t max (clinical; human, po, 300 mg, t max, oral 300 mg niraparib, n = 6, median and range) | half-life (clinical; human, po, 300 mg, t ½, oral 300 mg niraparib, n = 6, sampling 22 days) | t max (clinical; oral 300 mg niraparib, n = 6, median and range) | SMILES | Presence of metabolite in circulation [1] | F po [2] | F po [3] | Dose recovered as the parent compound in faeces ([1]; oral radiolabelled niraparib) | Total orally administered dose recovered in excreta ([1]; urine and faeces, radiolabelled niraparib) | t max ([4]; previous phase I dose-escalation study, range 1.5–4.1 h) | t ½ ([4]; previous study, shorter sampling period)
– | – | – | – | – | – | – | O=C(O)c1cccc2cn(-c3ccc(C4CCCNC4)cc3)nc12 (centres unmarked) [M1] | substantially present in circulation | – | – | – | – | – | –
72.7% | 47400 ng·h/mL | 46900 ng·h/mL | 1270 ng/mL | 4 h | ~95.6 h | 4.01 (3.07–6.03) h | NC(=O)c1cccc2cn(-c3ccc([C@@H]4CCCNC4)cc3)nc12 [niraparib] | – | 57% | 27% | approximately 20% | approximately 90% | around 3.1 h | 36.2 h

— PMC5754411 (Cancer Chemotherapy and Pharmacology, 2017)
